Measurements taken from ChEMBL document CHEMBL1122975, “Potential inhibitors of S-adenosylmethionine-dependent methyltransferases. 9. 2',3'-Dialdehyde derivatives of carbocyclic purine nucleosides as inhibitors of S-adenosylhomocysteine hydrolase” (J Med Chem, 1985).

Legend:
L929 = test: Percentage inhibition of plaque formation, after 72 hr of incubation in virus plaque assay, prepared from monolayer cultures of mouse L 929 cells; format: functional; set-up: concentration or dose not given beside the values
L cells [1] = test: Percentage control of incorporation of [3H]thymidine into DNA of uninfected L-cell cultures after 36h exposure; format: functional, Mus musculus, L929; set-up: concentration or dose not given beside the values
L cells [2] = test: Percentage control of incorporation of [3H]thymidine into DNA of uninfected L-cell cultures after 72 hr exposure; format: functional, Mus musculus, L929; set-up: concentration or dose not given beside the values
[3] = test system: Adenosylhomocysteinase (Bos taurus); test: Compound is evaluated for the inhibition of bovine liver S-adenosyl-homocysteine hydrolase at a concentration of 2.0 mM

With `Nc1ncnc2c1ncn2[C@@H]1C[C@H](CO)[C@@H](O)[C@H]1O` [ARISTEROMYCIN] the Inhibition (L929) was 65%, the Control (L cells [1]) was 81% and the Control (L cells [2]) was 134%.
Molecule `Nc1ncnc2c1ncn2C(C=O)CC(C=O)CO` (configuration not stated) has an Inhibition (L929) of 75%, a Control (L cells [1]) of 67% and a Control (L cells [2]) of 130%.
In the case of `Nc1nccc2c1ncn2[C@@H]1C[C@H](CO)[C@@H](O)[C@H]1O` [3-DEAZAARISTEROMYCIN A], the Inhibition (L929) is reported as 95%, the Control (L cells [1]) is reported as 86% and the Control (L cells [2]) is reported as 246%.
`Nc1ncnc2c1nnn2C1CC(CO)C(O)C1O` (configuration not stated) was tested, and the Inhibition (L929) was 7%, the Control (L cells [1]) was 89% and the Control (L cells [2]) was 146%.
`Nc1ncnc2c1nnn2C(C=O)CC(C=O)CO` (configuration not stated) showed an Inhibition (L929) of 63%, a Control (L cells [1]) of 91% and a Control (L cells [2]) of 81%.
`Nc1nccc2c1ncn2C(CO)CC(CO)CO` (configuration not stated) showed an Inhibition (L929) of 9% and an inhibition [3] of 94%.
`CNc1ncnc2c1ncn2C(C=O)CC(C=O)CO` (configuration not stated) showed an Inhibition (L929) of 60%, a Control (L cells [1]) of 63% and a Control (L cells [2]) of 106%.
Work on `Nc1nccc2c1ncn2C(C=O)CC(C=O)CO` (configuration not stated) yielded an Inhibition (L929) of 91%, a Control (L cells [1]) of 107% and a Control (L cells [2]) of 133%.
For `CNc1ncnc2c1ncn2C(CO)CC(CO)CO` (configuration not stated), the Inhibition (L929) was 7% and the inhibition [3] was 82%.
`Nc1ncnc2c1nnn2C(CO)CC(CO)CO` (configuration not stated) was tested, and the Inhibition (L929) was 11% and the inhibition [3] was 94%.
`Nc1ncnc2c1ncn2C(CO)CC(CO)CO` (configuration not stated) showed an Inhibition (L929) of 13% and an inhibition [3] of 98%.
`CNc1ncnc2c1ncn2C1CC(CO)C(O)C1O` (configuration not stated) was tested, and the Inhibition (L929) was 19%, the Control (L cells [1]) was 95% and the Control (L cells [2]) was 137%.
